# Source: patent US10188613B2 (UNIVERSITY OF SOUTH FLORIDA, priority 1998, dated 2019)
# Structures can show the parent of a compound that is named as a salt.
# Tests used:
# TS patients = conditions: Tourette's Syndrome patients; cited from earlier work
# [1] = system: vagotomized, pithed and artificially respired rats; assay: Pithed rat: cardiovascular responses to sympathetic nerve stimulation (Example 3); format: in vivo; conditions: for stimulation-induced increases in MAP: 0.8 and 2.2 Hz stimulation, i.v. bolus; for increases in heart rate (δ HR) vs saline-treated rats: 2.2 Hz, highest dose (10 mg/kg i.v.)
# Sprague-Dawley rats [2] = assay: Mecamylamine blockade of nicotine-induced seizures (Example 2); format: in vivo, rat; conditions: for nicotine-induced seizures (percentage of rats that seized): 0.1, 0.3, 1.0 mg/kg s.c. 15 min before nicotine 3.6 mg/kg s.c.; for duration and severity of seizure vs saline comparison group / seizure latency vs saline control: 0.3 and 1.0 mg/kg s.c.
# [3] = system: vagotomized, pithed and artificially respired rats; assay: Pithed rat: plasma catecholamine responses, HPLC (Example 3); format: in vivo
# Description: The aim of the study was to determine whether mecamylamine and its stereoisomers have any effect on pressor responses and increases in plasma catecholamines in response to sympathetic nerve stimulation.
# In the vagotomized, pithed and artificially respired rats (with oxygen mixed with air), the cardiovascular responses to test compounds measured were mean arterial blood pressure and heart rate; and the catecholamine responses measured were plasma norepinephrine, epinephrine and dopamine. These variables were measured in rats at rest and after electrical stimulation of sympathetic outflow at 0.2 Hz, 0.8 Hz, and 2.2 Hz for a one-minute duration (50 V, 1 msec pulse), and before and after administration of vehicle or a drug. Catecholamine assays were performed by specific HPLC testing. […] Statistical analysis were applied as appropriate.
# Plasma catecholamine (CA) levels—norepinephrine (NE), epinephrine (EPI), and dopamine (DA)—were measured by HPLC with an electrochemical detector following administration of doses of all forms of mecamylamine.
# [4] = system: Sprague-Dawley derived rats; assay: Prevention of sensitized locomotor stimulant response to nicotine (Example 1); format: in vivo, rat; conditions: lower doses; nicotine test on day 9
# human α4β2 receptors = target: T1, human α4β2 receptors (Homo sapiens, UniProt P17787+P43681); assay: Two-electrode voltage clamp, Xenopus oocytes expressing α4β2 receptors (Example 4); format: cell-based
# T1 construct: expressed in transfected cells; host or cells: Xenopus laevis oocytes, cRNA injection
# T1 sequence (P43681 29-627 limits assumed): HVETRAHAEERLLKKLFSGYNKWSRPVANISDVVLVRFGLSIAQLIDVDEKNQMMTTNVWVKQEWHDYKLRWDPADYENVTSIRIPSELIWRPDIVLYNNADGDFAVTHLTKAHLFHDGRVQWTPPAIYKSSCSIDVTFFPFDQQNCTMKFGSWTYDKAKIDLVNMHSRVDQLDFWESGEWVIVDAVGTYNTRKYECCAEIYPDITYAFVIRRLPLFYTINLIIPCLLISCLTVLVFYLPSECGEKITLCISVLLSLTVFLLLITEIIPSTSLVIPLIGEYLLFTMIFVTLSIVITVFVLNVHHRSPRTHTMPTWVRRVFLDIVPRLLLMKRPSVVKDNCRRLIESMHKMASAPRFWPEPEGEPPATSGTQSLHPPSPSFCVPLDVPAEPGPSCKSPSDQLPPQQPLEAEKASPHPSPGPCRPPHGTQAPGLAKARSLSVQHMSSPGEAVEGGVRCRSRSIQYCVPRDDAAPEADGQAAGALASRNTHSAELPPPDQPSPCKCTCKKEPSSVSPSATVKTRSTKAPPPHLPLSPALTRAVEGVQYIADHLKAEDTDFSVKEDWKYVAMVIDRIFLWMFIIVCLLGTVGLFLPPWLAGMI
# T1 sequence (P17787 26-502): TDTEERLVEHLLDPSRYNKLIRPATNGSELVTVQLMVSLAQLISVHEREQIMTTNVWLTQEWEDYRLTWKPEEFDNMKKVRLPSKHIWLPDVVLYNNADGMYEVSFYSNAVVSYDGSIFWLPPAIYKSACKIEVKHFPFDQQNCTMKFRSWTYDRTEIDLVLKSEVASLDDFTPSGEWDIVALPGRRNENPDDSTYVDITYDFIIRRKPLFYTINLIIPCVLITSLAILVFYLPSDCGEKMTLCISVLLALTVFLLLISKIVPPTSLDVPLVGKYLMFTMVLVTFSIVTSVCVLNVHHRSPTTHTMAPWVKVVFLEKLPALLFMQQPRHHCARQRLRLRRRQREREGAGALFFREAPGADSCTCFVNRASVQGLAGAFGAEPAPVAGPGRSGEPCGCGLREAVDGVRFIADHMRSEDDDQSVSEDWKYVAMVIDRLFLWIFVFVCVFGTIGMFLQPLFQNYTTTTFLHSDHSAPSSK
# Procedure: Voltage dependence and binding reversibility also were determined. Mature female Xenopus laevis African toads were used as a source of oocytes. After linearization and purification of cloned cDNAs, RNA transcripts were prepared in vitro using the appropriate mMessage mMachine® kit from Ambion Inc. (Austin Tex.). Harvested oocytes were treated with collagenase (Worthington Biochemical Corporation, Freehold N.J.) for two hr at room temperature in calcium-free solution. Subsequently stage 5 oocytes were isolated and injected with 50 nL each of a mixture of the appropriate subunit(s) cRNAs. Recordings were made about 1-7 days after cRNA injection.
# For electrophysiology, oocyte recordings were made with an oocyte amplifier (e.g., Warner Instruments, Hamden, Conn., No. OC-725C) and RC-8 recording chamber. Oocytes were placed in the recording chamber with a total volume of about 0.6 ml and perfused at room temperature by frog Ringer's solution (115 mM NaCl, 2.5 mM KCl, 10 mM HEPES pH 7.3, and 1.8 mM CaCl2) containing 1 µM atropine to inhibit potential muscarinic responses. A Mariotte flask filled with Ringer's solution was used to maintain a constant hydrostatic pressure for drug delivery and washes. Drugs were diluted in perfusion solution and loaded into a 2 ml loop at the terminus of the perfusion line. A bypass of the drug-loading loop allowed bath solution to flow continuously while the drug loop was loaded. The drug application was synchronized with data acquisition by using a 2-way electronic valve. The rate of bath solution exchange and drug application was preferably about 6 ml/min. Current electrodes were filled with a solution containing 250 mMCsCl, 250 mM CsF and 100 mM EGTA and had resistances of 0.5-2 MΩ. […]
# For experiments assessing voltage-dependence of drug inhibition, oocytes were initially voltage clamped at a holding potential of −40 mV or −90 mV and […] control application of ACh alone was delivered. […] Residual inhibition was evaluated with a subsequent application of ACh alone at the test potential, after a 5-min wash period.
# human α3β4 receptors = target: T2, human α3β4 receptors (Homo sapiens, UniProt P30926+P32297); assay: Two-electrode voltage clamp, Xenopus oocytes expressing α3β4 receptors (Example 4); format: cell-based
# T2 construct: expressed in transfected cells; host or cells: Xenopus laevis oocytes, cRNA injection
# T2 sequence (P32297 32-505): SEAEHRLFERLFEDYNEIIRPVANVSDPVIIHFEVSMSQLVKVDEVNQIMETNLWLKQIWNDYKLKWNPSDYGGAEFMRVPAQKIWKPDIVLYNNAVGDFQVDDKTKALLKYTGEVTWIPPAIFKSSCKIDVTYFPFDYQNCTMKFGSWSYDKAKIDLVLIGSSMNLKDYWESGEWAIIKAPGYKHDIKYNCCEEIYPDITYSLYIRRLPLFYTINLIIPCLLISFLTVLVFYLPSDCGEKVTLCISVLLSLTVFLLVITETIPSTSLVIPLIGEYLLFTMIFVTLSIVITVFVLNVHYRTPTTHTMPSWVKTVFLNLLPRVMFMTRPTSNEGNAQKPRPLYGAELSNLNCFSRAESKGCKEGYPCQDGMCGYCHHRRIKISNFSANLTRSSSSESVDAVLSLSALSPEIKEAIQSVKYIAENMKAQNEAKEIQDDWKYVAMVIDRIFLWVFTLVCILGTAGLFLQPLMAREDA
# T2 sequence (P30926 22-498): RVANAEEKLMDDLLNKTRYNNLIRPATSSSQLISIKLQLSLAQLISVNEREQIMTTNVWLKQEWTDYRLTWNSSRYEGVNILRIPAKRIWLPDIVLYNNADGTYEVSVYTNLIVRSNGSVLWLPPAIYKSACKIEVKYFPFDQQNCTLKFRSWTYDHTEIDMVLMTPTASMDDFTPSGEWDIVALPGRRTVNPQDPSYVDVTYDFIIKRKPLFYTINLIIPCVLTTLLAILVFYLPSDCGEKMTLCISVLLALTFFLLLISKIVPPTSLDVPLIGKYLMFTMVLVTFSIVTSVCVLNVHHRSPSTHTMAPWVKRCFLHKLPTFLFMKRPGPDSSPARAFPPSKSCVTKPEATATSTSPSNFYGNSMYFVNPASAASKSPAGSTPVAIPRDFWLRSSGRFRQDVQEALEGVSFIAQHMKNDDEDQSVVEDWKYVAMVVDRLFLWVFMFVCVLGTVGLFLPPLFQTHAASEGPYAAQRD
# Swiss-Webster mice [5] = assay: Locomotor depression test, compound alone (Example 6); format: in vivo, mouse
# [6] = target: hSERT (serotonin transporter) (Homo sapiens, UniProt P31645); assay: [125I]RTI-55 binding, HEK293-hSERT membranes (Example 5); conditions: [125I]RTI-55 competition
# [7] = target: hNET (norepinephrine transporter) (Homo sapiens, UniProt P23975); assay: [125I]RTI-55 binding, HEK293-hNET membranes (Example 5); conditions: [125I]RTI-55 competition
# Swiss-Webster mice [8] = assay: Cocaine interaction study, locomotor activity (Example 6); format: in vivo, mouse; conditions: 10 mg/kg ip + cocaine 20 mg/kg ip
# human α3β2 receptors = target: T3, human α3β2 receptors (Homo sapiens, UniProt P17787+P32297); assay: Two-electrode voltage clamp, Xenopus oocytes expressing α3β2 receptors (Example 4); format: cell-based
# T3 construct: expressed in transfected cells; host or cells: Xenopus laevis oocytes, cRNA injection
# T3 sequence (P32297 32-505): as the sequence (P32297 32-505) above
# T3 sequence (P17787 26-502): as the sequence (P17787 26-502) above
# [9] = target: α1β1δε mouse muscle receptors (Mus musculus, UniProt P02716+P04756+P09690+P20782); assay: Oocyte electrophysiology, muscle receptor selectivity (Example 4); format: cell-based
# Chain of α1β1δε mouse muscle receptors (P04756 21-457): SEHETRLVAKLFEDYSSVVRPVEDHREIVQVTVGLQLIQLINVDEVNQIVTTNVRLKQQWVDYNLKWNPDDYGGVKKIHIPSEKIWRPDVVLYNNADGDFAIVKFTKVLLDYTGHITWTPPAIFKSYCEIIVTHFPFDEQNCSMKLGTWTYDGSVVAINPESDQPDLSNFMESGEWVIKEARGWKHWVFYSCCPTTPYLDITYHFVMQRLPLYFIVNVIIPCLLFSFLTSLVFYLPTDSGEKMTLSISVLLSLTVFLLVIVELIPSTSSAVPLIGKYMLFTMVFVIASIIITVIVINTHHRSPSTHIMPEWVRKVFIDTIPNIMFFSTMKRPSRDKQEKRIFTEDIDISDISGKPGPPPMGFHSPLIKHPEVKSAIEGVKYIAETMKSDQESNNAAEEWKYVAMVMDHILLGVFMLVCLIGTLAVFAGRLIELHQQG
# Chain of α1β1δε mouse muscle receptors (P09690 24-501): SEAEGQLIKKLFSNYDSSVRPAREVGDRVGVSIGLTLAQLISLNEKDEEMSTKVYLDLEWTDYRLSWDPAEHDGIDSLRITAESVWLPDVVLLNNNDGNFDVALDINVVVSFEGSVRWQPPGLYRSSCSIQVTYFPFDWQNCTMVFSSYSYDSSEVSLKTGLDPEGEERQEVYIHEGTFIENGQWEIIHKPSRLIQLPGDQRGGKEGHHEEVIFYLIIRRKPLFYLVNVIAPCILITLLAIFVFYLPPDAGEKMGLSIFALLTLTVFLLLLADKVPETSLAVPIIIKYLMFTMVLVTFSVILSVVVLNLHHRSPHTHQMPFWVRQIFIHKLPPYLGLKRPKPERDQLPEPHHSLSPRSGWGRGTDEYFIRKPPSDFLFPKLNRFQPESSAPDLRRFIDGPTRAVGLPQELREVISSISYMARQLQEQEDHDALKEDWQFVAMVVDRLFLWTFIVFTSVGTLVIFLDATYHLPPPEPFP
# Chain of α1β1δε mouse muscle receptors (P02716 25-520): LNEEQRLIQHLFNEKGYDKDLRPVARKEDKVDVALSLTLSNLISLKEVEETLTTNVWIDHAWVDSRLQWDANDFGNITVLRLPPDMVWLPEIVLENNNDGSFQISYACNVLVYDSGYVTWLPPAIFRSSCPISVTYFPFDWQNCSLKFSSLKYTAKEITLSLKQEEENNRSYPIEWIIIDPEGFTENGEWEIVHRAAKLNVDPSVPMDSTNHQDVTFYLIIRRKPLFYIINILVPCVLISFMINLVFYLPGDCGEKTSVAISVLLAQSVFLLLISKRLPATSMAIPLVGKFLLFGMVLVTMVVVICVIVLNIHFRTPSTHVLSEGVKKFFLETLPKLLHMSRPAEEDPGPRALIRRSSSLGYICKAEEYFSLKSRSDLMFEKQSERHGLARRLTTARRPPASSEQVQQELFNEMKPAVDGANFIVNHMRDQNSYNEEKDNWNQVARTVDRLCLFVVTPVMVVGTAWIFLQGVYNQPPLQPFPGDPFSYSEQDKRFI
# Chain of α1β1δε mouse muscle receptors (P20782 21-493): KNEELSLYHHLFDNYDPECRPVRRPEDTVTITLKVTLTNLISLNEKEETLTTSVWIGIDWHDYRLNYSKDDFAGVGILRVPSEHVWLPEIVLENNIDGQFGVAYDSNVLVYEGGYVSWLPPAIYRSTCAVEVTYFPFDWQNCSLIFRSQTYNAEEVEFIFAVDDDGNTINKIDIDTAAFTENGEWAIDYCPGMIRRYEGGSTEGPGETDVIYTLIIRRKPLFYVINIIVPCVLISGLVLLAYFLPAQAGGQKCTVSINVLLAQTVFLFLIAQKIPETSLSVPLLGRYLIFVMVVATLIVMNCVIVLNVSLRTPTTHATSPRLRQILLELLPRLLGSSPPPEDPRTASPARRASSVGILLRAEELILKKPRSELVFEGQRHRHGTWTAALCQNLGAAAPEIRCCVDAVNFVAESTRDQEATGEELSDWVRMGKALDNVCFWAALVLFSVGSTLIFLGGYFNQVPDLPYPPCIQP
# Procedure: (§1) For electrophysiology, oocyte recordings were made with an oocyte amplifier (e.g., Warner Instruments, Hamden, Conn., No. OC-725C) and RC-8 recording chamber. Oocytes were placed in the recording chamber with a total volume of about 0.6 ml and perfused at room temperature by frog Ringer's solution (115 mM NaCl, 2.5 mM KCl, 10 mM HEPES pH 7.3, and 1.8 mM CaCl2) containing 1 µM atropine to inhibit potential muscarinic responses. A Mariotte flask filled with Ringer's solution was used to maintain a constant hydrostatic pressure for drug delivery and washes. Drugs were diluted in perfusion solution and loaded into a 2 ml loop at the terminus of the perfusion line. A bypass of the drug-loading loop allowed bath solution to flow continuously while the drug loop was loaded. The drug application was synchronized with data acquisition by using a 2-way electronic valve. The rate of bath solution exchange and drug application was preferably about 6 ml/min. Current electrodes were filled with a solution containing 250 mMCsCl, 250 mM CsF and 100 mM EGTA and had resistances of 0.5-2 MΩ. Voltage electrodes were filed with 3M KCl and have resistances of 1-3MΩ. Oocytes with resting membrane potentials more positive than −30 mV were not used.
# (§2) Holding currents immediately before agonist application were subtracted from measurements of the peak response to agonist. […]
# Sprague-Dawley rats [10] = assay: Effects of mecamylamine alone at high dose: seizures and spontaneous locomotor activity (Example 2); format: in vivo, rat; conditions: 10 mg/kg s.c., 30 min
# Procedure: Male Sprague-Dawley rats (n=96) weighing between 200 and 250 grams upon arrival were used for this study (Harlan Laboratories, Ind.). The rats were housed two per cage, allowed one week to acclimate to animal facility before testing, kept on a reverse lighting schedule (7:00-19:00 lights off), and allowed free access to food and water. Testing occurred between 10:00 a.m. and 3:00 p.m. in a dimly lit room maintained at 22° C. The experimental procedures carried out in this study were in compliance with the Guide for the Care and Use of Laboratory Animals (National Research Council, 1996) and had the prior approval of the University of South Florida Institutional Animal Care and Use Committee.
# Observation of seizures and locomotor recordings were carried out in clear acrylic 41×41×30 cm test chambers inside Digiscan activity monitors (Accuscan, Inc.). Each monitor employs two arrays of infrared photocell beams (8×8 photocells, model RXYZCM-8) to detect several parameters of the rat's movement both horizontally and vertically. Data were collected in 5-min bins during testing.
# All drugs were dissolved in physiological saline, and nicotine was adjusted to pH with HCl to 7.40. […] All doses are expressed as the free base of the drug. […]
# Data was analyzed using a one-way analysis of variance followed by Fishers least significance test for multiple comparisons. […]
# [11] = target: NMDA receptor subunits NR1 and NR2b (Homo sapiens, UniProt Q05586+Q13224); assay: Oocytes coexpressing NMDA receptor subunits (Example 4); format: cell-based; conditions: 100 μM; reversible after a 5-min wash
# Procedure: as §1, §2
# nicotine receptors = assay: Oocyte electrophysiology, recovery time course and agonist test, receptor subtype not specified (Example 4); format: cell-based, human
# human α7 receptors = target: T4, human α7 receptors (Homo sapiens, UniProt P36544); assay: Two-electrode voltage clamp, Xenopus oocytes expressing α7 receptors (Example 4); format: cell-based
# T4 construct: expressed in transfected cells; host or cells: Xenopus laevis oocytes, cRNA injection
# T4 sequence (P36544 23-502): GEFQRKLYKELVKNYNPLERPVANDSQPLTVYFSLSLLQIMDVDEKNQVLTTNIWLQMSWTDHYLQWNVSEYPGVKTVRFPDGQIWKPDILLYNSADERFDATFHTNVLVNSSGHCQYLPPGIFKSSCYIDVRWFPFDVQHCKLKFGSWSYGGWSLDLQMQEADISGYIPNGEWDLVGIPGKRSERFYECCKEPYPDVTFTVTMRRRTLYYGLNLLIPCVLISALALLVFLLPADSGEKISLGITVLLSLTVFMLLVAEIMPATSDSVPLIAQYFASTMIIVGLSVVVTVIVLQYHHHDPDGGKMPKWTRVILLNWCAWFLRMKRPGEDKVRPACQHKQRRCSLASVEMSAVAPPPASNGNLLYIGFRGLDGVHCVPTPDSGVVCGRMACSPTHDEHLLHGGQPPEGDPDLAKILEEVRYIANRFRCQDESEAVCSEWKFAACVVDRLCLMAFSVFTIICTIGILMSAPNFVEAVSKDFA
# [12] = target: hDAT (dopamine transporter) (Homo sapiens, UniProt Q01959); assay: [125I]RTI-55 binding, HEK293-hDAT membranes (Example 5); conditions: [125I]RTI-55 competition
# [13] = 0.1 mg/kg s.c., nicotine 3.6 mg/kg
# [14] = after co-application of 10 μM with ACh
structure (smiles),measurement,setting,value
Clc1cccc(Cl)c1N=C1NCCN1 [clonidine],cases in which treatment is effective / success rate for motor and vocal tics,TS patients,40%
"CN[C@]1(C)[C@H]2CC[C@H](C2)C1(C)C [exo-R-mecamylamine, reference compound]",stimulation-induced increases in MAP,[1],completely abolished
same,increases in heart rate (δ HR) vs saline-treated rats,[1],significantly lowered the increases in heart rate
same,duration of seizure vs saline comparison group,Sprague-Dawley rats [2]; [13],did not differ from their saline comparison group
same,nicotine-induced seizures (percentage of rats that seized),Sprague-Dawley rats [2],prevented nicotine-induced seizures in a dose-dependent manner
same,duration and severity of seizure vs saline comparison group,Sprague-Dawley rats [2]; nicotine 3.6 mg/kg,significantly different from their saline comparison groups
same,seizure latency vs saline control,Sprague-Dawley rats [2]; nicotine 3.6 mg/kg,significantly longer latency
same,plasma DA levels on sympathetic stimulation vs baseline,[3]; 2.2 Hz,significant increases in plasma DA levels
same,stimulation-induced increases in plasma NE levels vs saline,[3]; 2.2 Hz,significantly less
same,"effectiveness of isomers compared, particularly center distance and vertical activity",[4],generally more effective at lower doses
"CN[C@@]1(C)[C@@H]2CC[C@@H](C2)C1(C)C [exo-S-mecamylamine, exo-S-N,2,3,3-tetramethyl-bicycl-o-[2.1.1]heptan-2-amine hydrochloride]",voltage dependence of inhibition,"human α4β2 receptors; 5 μM, -40 mV vs 90 mV [sic]",significant voltage dependence
same,residual inhibition: control ACh response 5 min after exposure,human α4β2 receptors; 5 min wash,greatest for β2-containing receptors
same,"time constant of recovery, compared with α3β2",human α4β2 receptors; [14],similar
same,stimulation-induced increases in MAP,[1],completely abolished
same,increases in heart rate (δ HR) vs saline-treated rats,[1],significantly lowered the increases in heart rate
same,"potency rank, stimulation-induced pressor responses",[1]; of the three forms,most potent
same,duration of seizure vs saline comparison group,Sprague-Dawley rats [2]; [13],significantly different from their saline comparison groups
same,seizure latency vs saline comparison group,Sprague-Dawley rats [2]; [13],significantly longer seizure latency
same,nicotine-induced seizures (percentage of rats that seized),Sprague-Dawley rats [2],prevented nicotine-induced seizures in a dose-dependent manner
same,duration and severity of seizure vs saline comparison group,Sprague-Dawley rats [2]; nicotine 3.6 mg/kg,significantly different from their saline comparison groups
same,seizure latency vs saline control,Sprague-Dawley rats [2]; nicotine 3.6 mg/kg,significantly longer latency
same,number of rats with nicotine-seizures compared with exo-R-mecamylamine,Sprague-Dawley rats [2]; lowest dose 0.1 mg/kg,fewer rats had nicotine-seizures
same,voltage dependence of inhibition,"human α3β4 receptors; 1 μM, -40 mV vs 90 mV [sic]",significant voltage dependence
same,residual inhibition: control ACh response 5 min after exposure,human α3β4 receptors; 5 min wash,marked decrease in subsequent control response to ACh
same,effect on locomotor activity in the last 30 minutes of testing,Swiss-Webster mice [5]; 1 and 3 mg/kg ip,Stimulant effects
same,dose producing one half of the maximal depressant activity,"Swiss-Webster mice [5]; ip, 20 min before testing, maximal depression = 0 counts in 30 minutes",8.5 mg/kg
same,affinity for binding site compared with cocaine,[6],lower than the affinity of cocaine
same,stimulation-induced increases in plasma NE levels vs saline,[3]; 2.2 Hz,significantly decreased stimulation-evoked plasma NE increases
same,stimulation-induced plasma EPI responses,[3]; 2.2 Hz,significant decrease in stimulation-induced plasma EPI responses
same,overall effectiveness on plasma CA and sympathetically-mediated cardiovascular responses,[3]; of the three forms,most effective in reducing plasma CA
same,affinity for binding site compared with cocaine,[7],lower than the affinity of cocaine
same,locomotion at 30 minutes vs saline/cocaine,Swiss-Webster mice [8],significantly different from the result of cocaine alone
same,voltage dependence of inhibition,"human α3β2 receptors; 5 μM, -40 mV vs 90 mV [sic]",significantly different responses
same,residual inhibition: control ACh response 5 min after exposure,human α3β2 receptors; 5 min wash,greatest for β2-containing receptors
same,time constant of recovery,human α3β2 receptors; [14],about 33 min
same,inhibition of muscle receptors after wash,[9]; 5-min wash,fully reversed
same,effect on muscle receptors,[9]; control ACh 3 μM,very little effect
same,"spontaneous locomotor activity, total distance traveled",Sprague-Dawley rats [10],signigicantly less locomotor depressant effects
same,inhibition of response to 10 μM glutamate+10 μM glycine,[11],transient inhibition
same,initial inhibition,nicotine receptors; co-application of 10 μM and ACh at control concentration,greater than 50%
same,off-loading from some receptors,nicotine receptors; compared with exo-R-mecamylamine,slower than exo-R-mecamylamine
same,voltage dependence of inhibition,"human α7 receptors; 10 μM, -40 mV vs 90 mV [sic]",significantly different responses
same,residual inhibition: control ACh response 5 min after exposure,human α7 receptors; 5 min wash,least for α7 receptors
same,IC50 rank among receptor subtypes,"human α7 receptors; control ACh 300 μM, -50 mV",least potent at inhibiting α7 receptors
same,affinity for binding site compared with cocaine,[12],lower than the affinity of cocaine
O=C(CCCN1CCC(O)(c2ccc(Cl)cc2)CC1)c1ccc(F)cc1 [haloperidol],cases in which treatment is effective / success rate for motor and vocal tics,TS patients,about 70%
